For data set [1] the following is noted: cited from earlier work. The text has this:
In the past decade, several new chemical classes which display potent antifungal activity targeting fungal α, β-tubulin have been developed such as zoxamide, inhibiting β-tubulin in Phytophthora sojae (P. sojae); methyl benzimidazole carbamate, (MBC) inhibiting β-tubulin in Podosphaera xanthii (P. xanthii); and benomyl. One of these microtubule-targeted fungicides is benomyl. In the presence of benomyl, the polymerization of tubulin to microtubules is inhibited resulting in retarded cell division.

Data set [2] deals with P. capsici α, β-tubulin. The data set is described as follows: ELISA binding affinity of phages displaying tubulin-binding peptides (anti-M13 antibody). More on the design: species or system Phytophthora capsici. To be noted: phage displaying the peptide, 5 μg tubulin per well, OD 450 nm. The procedure:
Phage display was conducted with the M13 phage library in an effort to identify specific binding peptides to α, β-tubulin proteins from P. capsici. After five rounds of biopanning toward each target protein, 169 phage clones for α-tubulin and 112 for β-tubulin were selected. […] Testing was done for all the phages with different sequences to estimate their binding affinities for α, β-tubulins of P. capsici.
Phages displaying α, β-tubulin binding peptides were prepared, and their concentrations were determined by measurement of plaque-forming units (pfu) per volume. The binding affinities of phages displaying α, β-tubulin binding peptides were determined by the ELISA method, as described previously. Briefly, α, β-tubulin binding peptides were added in a concentration-dependent manner to a 96-well plate containing α, β-tubulin protein (5 μg per well), as indicated. The wells were then washed 10 times with 1X TBST (50 mM Tris-HCl, pH 7.5, 150 mM NaCl, and 0.1% Tween-20), followed by probing with an anti-M13 antibody (mouse monoclonal antibody, 1:5000 in 1X TBST, 0.2 μg·ml^−1; Amersham Bioscience, Little Chalfont, UK) for 1 h at room temperature. After washing five times with 1 X TBST buffer, anti-mouse IgG-horseradish peroxidase (HRP) conjugate was added, and the mixture was incubated for 1 h, followed by a color-developing reaction with tetramethylbenzidine (TMB) substrate solution ([TMB]/H2O2; Chemicon, Billerica, MA, USA). After 15 min, the reaction was terminated by the addition of 1 M H2SO4, and the optical densities were measured at 450 nm with a Biotrak multiwall plate reader (Amersham Bioscience).
Background: ELISA stands for enzyme-linked immunosorbent assay.

In data set [3] the target is T1, P. capsici α, β-tubulin microtubule polymerization (Phytophthora capsici, UniProt A4ZYP2+A4ZYP4). The data set is described as follows: Inhibition of microtubule polymerization by phages (turbidity at 350 nm). It is filed as biochemical. To be noted: phage 10 nM, 40 min reaction time. The procedure: As a next step, all 15 phages were used to determine whether the phages could inhibit the activity of microtubule polymerization of P. capsici. The concentration of each phage was constant at 10 nM, and the polymerization was measured after 40 min of reaction time.
(§1) The polymerization and inhibition of microtubule assembly were studied using a spectroscopic method. Purified α, β-tubulins were mixed with 120 μL of polymerization buffer (80 mM PIPES (pH 7.4), 1 mM EGTA, 1 mM MgCl2, and 5% v/v glycerol) to a final concentration of 0.5 mg/mL total tubulin in 300 μL final reaction mixture. The polymerization assay was initiated with the addition of 2.5 mM GTP, and the reaction was continued until it reached the saturation point for 40 min. The contents were mixed, and the resulting turbidity due to microtubule formation was measured at 350 nm using an Optizen 2120 UV spectrophotometer. […] Furthermore, the polymerization and inhibition of microtubule formation were also confirmed through sodium dodecyl sulfate–polyacrylamide gel electrophoresis (SDS-PAGE), Western blot, and transmission electron microscopy (TEM). For the TEM analysis, samples were prepared according to the protocol reported by Vulevic et al.. Briefly, 30 μL of the saturated product of the polymerization reaction was immediately diluted with 10 μL of 0.4% glutaraldehyde, and the mixture was incubated for 3 min at room temperature. Then, 10 μL of the solution was applied to a 200 mesh, copper/formvar-coated grid (EMS) for 1 min, which was sequentially washed using two drops of dH2O and stained for 2 min with a drop of 2% uranyl acetate. Excess stain was removed by blotting with filter paper. Samples were air-dried and later viewed under a TEM.

Data set [4] has as its target P. capsici α, β-tubulin. The data set is described as follows: Fluorometric binding affinity of FITC-labeled synthetic peptides. More on the design: species or system Phytophthora capsici. As to conditions: FITC-labeled peptide, immobilised tubulin in 96-well plate, 2 h, ex 495 / em 520 nm. An excerpt: These peptides were synthesized with FITC-label for detection of the difference in the fluorescence by the absence and presence of target binding using a fluorescence microplate reader (see the Materials and Methods).
(§2) Peptides were synthesized by AnyGen Inc. (Gwangju, Korea). To prevent unintended interaction with other molecules, the peptides used in this study were modified by acetylation at the N-terminus and amidation at the C-terminus. With the addition of a lysine residue, the peptides were labeled with FITC at the C-terminus. This labeling was used for the identification of the target binding property by means of fluorescence detection. The purity of the synthesized peptides was greater than 90%, as assessed by HPLC. The peptides were further characterized to estimate their binding affinity and specificity. Briefly, serial dilutions of FITC-labeled peptides were incubated with α, β-tubulin proteins immobilized on a 96-well plate for 2 h. The binding affinities of the FITC-labeled peptides were determined by a fluorescence microplate reader (Molecular Devices, Sunnyvale, CA, USA) using the soft Max V5 system, with excitation at 495 nm and emission at 520 nm. The specificities of identified peptides for the target proteins were evaluated using the same fluorometric method described above, incorporating homologous H. sapiens α, β-tubulin. BSA protein was used as a negative control.

The next data set deals with H. sapiens α, β-tubulin. The data set is described as follows: Fluorometric binding affinity of FITC-labeled synthetic peptides (specificity). As to conditions: FITC-labeled peptide, immobilised tubulin in 96-well plate, 2 h, ex 495 / em 520 nm.
Excerpt: Investigation of the binding affinity for α, β-tubulins of H. sapiens to the synthesized peptides is necessary because peptide binding to H. sapiens tubulins could trigger severe toxicity in humans. First, α, β-tubulins of H. sapiens were individually overexpressed and purified (Figure 1). […] In addition, bovine serum albumin (BSA) was used as another control to confirm the specificity of the synthesized peptides. No significant binding fluorescence intensities for BSA were detected.
as §2

Data set [5] addresses T1, P. capsici α, β-tubulin microtubule polymerization. The data set is described as follows: biochemical. The protocol: The IC50 values of the four synthetic peptides were determined by fitting the relative inhibition data via the below Equation (1), where V0 is the reaction rate without inhibitor, Vf is the rate at saturation inhibition, and [I] is the inhibitor concentration. (1) V=(V0−Vf)×IC50/IC50+[I]+Vf
as §1

Data set [6] deals with H. sapiens α, β-tubulin microtubule polymerization. Briefly: Microtubule polymerization inhibition assay with synthetic peptides (turbidity at 350 nm). It counts as biochemical. To be noted: 0.5 mg/mL total tubulin, 2.5 mM GTP, 40 min. The text has this:
(1) V=(V0−Vf)×IC50/IC50+[I]+Vf
Excess stain was removed by blotting with filter paper.

Another data set concerns P. capsici microtubules. Briefly: TEM analysis of polymerized microtubules. As to conditions: polymerized for 40 min. It counts as biochemical, Phytophthora capsici. The procedure: as §1, with “Excess stain was removed by blotting with filter paper. Samples were air-dried and later viewed under a TEM.” left out

Values joined by “and” are separate entries in the source; they are usually repeats but may differ in a detail not shown here. Equal entries are not always repeated. Peptide text beside a SMILES is read from it. * marks the point of attachment. FITC = O=C1OC2(c3ccc(O)cc3Oc3cc(O)ccc32)c2ccc(NC(=S)*)cc21

For orientation: Kd means the equilibrium constant for the complex coming apart. Broadly, the IC50 is the concentration at which inhibition is half-maximal.

T1 sequence (A4ZYP4 1-453): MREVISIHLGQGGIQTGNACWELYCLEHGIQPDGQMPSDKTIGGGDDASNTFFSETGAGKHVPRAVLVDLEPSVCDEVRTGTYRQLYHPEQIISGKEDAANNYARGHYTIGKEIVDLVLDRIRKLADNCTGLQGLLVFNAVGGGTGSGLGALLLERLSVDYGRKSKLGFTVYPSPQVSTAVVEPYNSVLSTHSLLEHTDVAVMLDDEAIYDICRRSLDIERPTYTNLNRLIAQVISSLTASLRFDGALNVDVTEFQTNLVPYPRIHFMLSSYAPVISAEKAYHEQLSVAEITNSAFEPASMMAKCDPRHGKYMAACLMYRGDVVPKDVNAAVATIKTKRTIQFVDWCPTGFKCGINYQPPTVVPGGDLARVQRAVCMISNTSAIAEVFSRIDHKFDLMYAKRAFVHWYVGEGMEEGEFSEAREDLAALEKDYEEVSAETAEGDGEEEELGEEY
T1 sequence (A4ZYP2 1-446): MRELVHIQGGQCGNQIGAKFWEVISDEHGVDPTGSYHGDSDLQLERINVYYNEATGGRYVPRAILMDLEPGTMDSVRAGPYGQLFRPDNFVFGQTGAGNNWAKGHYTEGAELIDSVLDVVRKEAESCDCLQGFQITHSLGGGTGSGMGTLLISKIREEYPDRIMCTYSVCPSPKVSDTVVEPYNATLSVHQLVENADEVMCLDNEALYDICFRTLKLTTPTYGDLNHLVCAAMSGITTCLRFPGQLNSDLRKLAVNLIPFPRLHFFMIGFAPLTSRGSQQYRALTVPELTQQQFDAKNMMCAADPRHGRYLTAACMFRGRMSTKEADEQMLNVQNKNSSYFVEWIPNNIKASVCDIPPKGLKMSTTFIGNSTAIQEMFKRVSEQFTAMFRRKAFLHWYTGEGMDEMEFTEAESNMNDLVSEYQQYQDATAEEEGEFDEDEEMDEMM

On to `CCCCNC(=O)n1c(NC(=O)OC)nc2ccccc21` [benomyl], for which the solubility in water entry in data set [1] is on record as “low solubility”.
With `CC[C@H](C)[C@H](NC(C)=O)C(=O)N[C@H](C(=O)N[C@@H](CCSC)C(=O)N[C@@H](CO)C(=O)N[C@H](C(=O)N1CCC[C@H]1C(=O)N[C@@H](C)C(=O)N[C@@H](Cc1c[nH]cn1)C(=O)N[C@@H](CC(N)=O)C(=O)N[C@@H](C)C(=O)N[C@@H](CCCCN)C(=O)N[C@@H](CCC(=O)O)C(=O)N[C@@H](CCCCNC(=S)Nc1ccc2c(c1)C(=O)OC21c2ccc(O)cc2Oc2cc(O)ccc21)C(N)=O)C(C)C)[C@@H](C)O` [α_P1] (Ac-ITMSVPAHNAKEK(FITC)-NH2), the dissociation constant (Kd) at P. capsici α, β-tubulin [2] amounted to 0.0342 ± 0.00211 nM; at P. capsici α, β-tubulin [4] it was 69.5 ± 6.4 nM; on H. sapiens α, β-tubulin it was 134 ± 48.8 nM. Also, the “percent inhibition of microtubule polymerization” value (“percent inhibition” for short) in data set [3] was found to be 28%. In addition, in data set [5], half-maximal inhibition (IC50) was put at 2690 nM.
Take `CC(=O)N[C@H](C(=O)N[C@@H](CC(N)=O)C(=O)N[C@H](C(=O)N[C@@H](CO)C(=O)N[C@@H](Cc1c[nH]c2ccccc12)C(=O)N[C@@H](CC(=O)O)C(=O)N1CCC[C@H]1C(=O)N[C@@H](CCC(N)=O)C(=O)N[C@@H](Cc1ccc(O)cc1)C(=O)N[C@@H](CC(N)=O)C(=O)N1CCC[C@H]1C(=O)N[C@@H](CC(=O)O)C(=O)N[C@@H](CCCCNC(=S)Nc1ccc2c(c1)C(=O)OC21c2ccc(O)cc2Oc2cc(O)ccc21)C(N)=O)[C@@H](C)O)[C@@H](C)O` [α_P2] (Ac-TNTSWDPQYNPDK(FITC)-NH2): the Kd is 0.0801 ± 0.00113 nM on P. capsici α, β-tubulin [2]; 93.9 ± 11.2 nM at P. capsici α, β-tubulin [4]; 256 ± 31.1 nM on H. sapiens α, β-tubulin. Further, the “percent inhibition” value in data set [3] is reported as 54%. Also, the IC50 in data set [5] came out at 802 nM; in data set [6], 2430 nM. In the data set with P. capsici microtubules (1 μM peptide), the “microtubule morphology by TEM” value is reported as “Amorphous morphology of microtubules occurred predominantly”. Moreover, the “microtubule formation by TEM” value in the data set on P. capsici microtubules (Ten micromolar peptide) is reported as “completely inhibited the formation of microtubules”.
On to `CC(=O)N[C@@H](CC(N)=O)C(=O)N[C@@H](Cc1c[nH]cn1)C(=O)N[C@@H](Cc1ccccc1)C(=O)N[C@H](C(=O)N1CCC[C@H]1C(=O)N[C@H](C(=O)N[C@@H](CO)C(=O)N[C@@H](CC(N)=O)C(=O)N[C@@H](CCCNC(=N)N)C(=O)N[C@@H](Cc1ccccc1)C(=O)N[C@@H](CC(N)=O)C(=O)N[C@@H](C)C(=O)N[C@@H](CCCCNC(=S)Nc1ccc2c(c1)C(=O)OC21c2ccc(O)cc2Oc2cc(O)ccc21)C(N)=O)[C@@H](C)O)C(C)C` [α_P3] (Ac-NHFVPTSNRFNAK(FITC)-NH2), for which the Kd was 0.12 ± 0.00123 nM at P. capsici α, β-tubulin [2]; 79.2 ± 6.8 nM on P. capsici α, β-tubulin [4]; 162 ± 8.1 nM at H. sapiens α, β-tubulin. Moreover, the “percent inhibition” value in data set [3] is reported as 32%. Further, the results for the IC50 in data set [5] and in data set [6] were 1240 nM and 4110 nM, respectively.
For the molecule `CC(=O)N[C@H](C(=O)N[C@@H](CC(N)=O)C(=O)N1CCC[C@H]1C(=O)N[C@@H](CCC(N)=O)C(=O)N[C@@H](C)C(=O)N[C@@H](CCCNC(=N)N)C(=O)N[C@@H](Cc1c[nH]c2ccccc12)C(=O)N[C@@H](Cc1c[nH]cn1)C(=O)N[C@@H](CCC(=O)O)C(=O)N[C@@H](Cc1ccc(O)cc1)C(=O)N[C@@H](CC(N)=O)C(=O)N[C@@H](Cc1ccccc1)C(=O)N[C@@H](CCCCNC(=S)Nc1ccc2c(c1)C(=O)OC21c2ccc(O)cc2Oc2cc(O)ccc21)C(N)=O)[C@@H](C)O` [β_P1] (Ac-TNPQARWHEYNFK(FITC)-NH2), the Kd on P. capsici α, β-tubulin [2] was found to be 0.0419 ± 0.00105 nM; on P. capsici α, β-tubulin [4] it was 49.7 ± 2.9 nM; at H. sapiens α, β-tubulin, 455 ± 50.7 nM. The “percent inhibition” value in data set [3] is 21%. Also, in data set [5], the IC50 came to 6910 nM.
Regarding “IGNSWPLTSHSW [α_P10, M13 phage clone displaying 12-mer […], selected against P. capsici α-tubulin]”, the Kd at P. capsici α, β-tubulin [2] is 0.144 ± 0.0011 nM.
The same measure, in the same setting: for “KVYAINSWTNYY [α_P13, M13 phage clone displaying 12-mer […], selected against P. capsici α-tubulin]” the value was 1.2 ± 0.0902 nM; for “LMNPATMKTSSG [α_P7, M13 phage clone displaying 12-mer […], selected against P. capsici α-tubulin]”, 0.36 ± 0.00187 nM.
Still for that read-out and setting: then “MVHSKASMWPGK [α_P12, M13 phage clone displaying 12-mer […], selected against P. capsici α-tubulin]”, with 0.69 ± 0.00227 nM.
With NAITLLSPPLHK [α_P5], on P. capsici α, β-tubulin [2], the Kd was 0.0571 ± 0.00177 nM. Further, the “percent inhibition” value in data set [3] is 5% and 4%.
Take NFTINGKTHRLW [α_P4]: the Kd at P. capsici α, β-tubulin [2] was 0.298 ± 0.00145 nM. In data set [3], the “percent inhibition” value turned out to be 19%.
In turn, NPIGDNYSGTGL [β_P2] yielded a Kd on P. capsici α, β-tubulin [2] of 0.0371 ± 0.00141 nM. Further, the “percent inhibition” value in data set [3] is reported as 2%.
For the molecule “SNMKPSMEYSSR [α_P9, M13 phage clone displaying 12-mer […], selected against P. capsici α-tubulin]”, the dissociation constant (Kd) at P. capsici α, β-tubulin [2] is 0.273 ± 0.00179 nM.
Same read-out and setting: for “SSHNHDSYHGTK [α_P6, M13 phage clone displaying 12-mer […], selected against P. capsici α-tubulin]” the value was 0.476 ± 0.00273 nM.
On P. capsici α, β-tubulin [2], “SYNTFMYERASK [α_P11, M13 phage clone displaying 12-mer […], selected against P. capsici α-tubulin]” yielded an equilibrium dissociation constant (Kd) of 0.562 ± 0.00169 nM.
In the case of “TNTSWDPQYNPD [α_P8, M13 phage clone displaying 12-mer […]; (so in the source), selected against P. capsici α-tubulin]”, at P. capsici α, β-tubulin [2], the equilibrium dissociation constant (Kd) is 0.0476 ± 0.00251 nM. Moreover, the “percent inhibition” value in data set [3] is recorded as 4%.
